Laboratory results from ChEMBL document CHEMBL5108002, “Design, synthesis, and biological evaluation of novel 7-substituted 10,11-methylenedioxy-camptothecin derivatives against drug-resistant small-cell lung cancer in vitro and in vivo” (Eur J Med Chem, 2022).
Active and inactive are the calls of the source. The calls are words filed in the database; no cut-off is given here.

Experiments:
NCI-H446 [1] = assay: Induction of apoptosis in human NCI-H446 cells assessed as downregulation of survivin protein expression at 0.1 to 100 nM measured for 48 hrs by Western blot analysis; assay type: functional, cell-based; conditions: dose 0.1-100 nM
NCI-H446 [2] = assay: Induction of apoptosis in human NCI-H446 cells assessed as reduction in Mcl-1 mRNA level at 0.1 to 100 nM incubated for 24 hrs by RT-PCR analysis; assay type: functional, cell-based; conditions: dose 0.1-100 nM
NCI-H69 [3] = assay: Induction of apoptosis in human NCI-H69 cells assessed as reduction in Bcl-2 mRNA expression at 0.1 to 100 nM incubated for 24 hrs by RT-PCR analysis; assay type: functional, cell-based; conditions: dose 0.1-100 nM
NCI-H446 [4] = assay: Induction of apoptosis in human NCI-H446 cells assessed as reduction in Bcl-2 mRNA level at 0.1 to 100 nM incubated for 24 hrs by RT-PCR analysis; assay type: functional, cell-based; conditions: dose 0.1-100 nM
NCI-H446 [5] = assay: Induction of apoptosis in human NCI-H446 cells assessed as dead cells at 1 nM incubated for 24 hrs by AnnexinV-FITC/PI staining based flow cytometry analysis (reference value: 0.22 %); assay type: functional
[6] = Resistance index, ratio of IC50 for antiproliferative activity against etoposide/cisplatin combination-resistant human NCI-H446 cells to IC50 for antiproliferative activity against human NCI-H446 cells; assay type: functional
NCI-H69 [7] = assay: Induction of apoptosis in human NCI-H69 cells assessed as increase in cleaved-caspase 9 protein expression at 0.1 to 100 nM measured after 24 hrs by Western blot analysis; assay type: functional, cell-based; conditions: dose 0.1-100 nM
NCI-H446 [8] = assay: Induction of apoptosis in human NCI-H446 cells assessed as inhibition of XIAP protein expression incubated for 24 hrs by Western blot analysis; assay type: functional, cell-based; conditions: dose 0.1-100 nM
NCI-H69 [9] = assay: Induction of apoptosis in human NCI-H69 cells assessed as inhibition of survivin protein expression at 0.1 to 100 nM incubated for 24 hrs by Western blot analysis; assay type: functional, cell-based; conditions: dose 0.1-100 nM
NCI-H446 [10] = assay: Antiproliferative activity against etoposide/cisplatin combination-resistant human NCI-H446 cells assessed as inhibition of cell growth incubated for 72 hrs by SRB assay; assay type: functional, cell-based; conditions: NCI-H446, 72 h
H69AR [11] = assay: Induction of apoptosis in human NCI-H69AR cells assessed as late apoptotic cells at 1 nM incubated for 24 hrs by AnnexinV-FITC/PI staining based flow cytometry analysis (reference value: 2.99 %); assay type: functional
NCI-H446 [12] = assay: Induction of apoptosis in human NCI-H446 cells assessed as dead cells at 10 nM incubated for 24 hrs by AnnexinV-FITC/PI staining based flow cytometry analysis (reference value: 0.22 %); assay type: functional
H69AR [13] = assay: Induction of apoptosis in human NCI-H69AR cells assessed as increase in cleaved-caspase 3 protein expression at 0.1 to 100 nM measured after 24 hrs by Western blot analysis; assay type: functional, cell-based; conditions: dose 0.1-100 nM

For `CC[C@@]1(O)C(=O)OCc2c1cc1n(c2=O)Cc2c-1nc1cc3c(cc1c2-c1ccoc1)OCO3`, the Activity (NCI-H446 [1]) was “Active”, the Activity (NCI-H446 [2]) was “Active” and the Activity (NCI-H69 [3]) was “Active”. For the same compound, the Activity (NCI-H446 [4]) was “Active”, the Activity (NCI-H446 [5]) was 3.79% and the “Ratio IC50” value [6] was 0.63. For the same compound, the Activity (NCI-H69 [7]) was “Active”, the inhibition (NCI-H446 [8]) was “Active” and the inhibition (NCI-H69 [9]) was “Active”. For the same compound, the IC50 (NCI-H446 [10]) was 0.49 nM, the Activity (H69AR [11]) was 7.02% and the Activity (NCI-H446 [12]) was 2.78%. For the same compound, the Activity (H69AR [13]) was “Active”.
